Results reported in patent US6265423A, “Aromatic polycyclic retinoid-type derivatives, method for preparing same, and use thereof for making pharmaceutical and cosmetic compositions” (priority 1996, dated 2001).
“Also recorded” adds a separate entry of the source.

How the values were obtained:
[1] = test system: Gal4-RAR (RARα, RARβ, RARγ); assay: Chimerical receptors Gal4-RAR, overall profile; type: cell-based
[2] = test system: ERE-βGlob-Luc, MELN lineage (MCF-7); assay: Anti-oestrogenic effect, MELN lineage activated by estradiol; type: cell-based, human; details: for inhibition / inhibition at 0.1 µM: Homo sapiens, MCF7, cells activated by 10^-9 M estradiol; for inhibition: 10^-6 M; for anti-oestrogenic effect (in words): estradiol-activated MELN cells; for inhibition at 0.1 µM: 10^-7 M, read-out: anti-oestrogenic effect, inhibition
How it was run: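 Run in duplicate on estradiol-activated (10^-9 M) MELN cells, MCF-7 stably transfected with ERE-βGlobin-luciferase reporter. Values are percentages of the estradiol response after deducting basal level, defined by 1 μM hydroxytamoxifen.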

[3] = test system: Gal4-RARα; assay: Transactivation, chimerical receptor Gal4-RARα (transitory transfection of HeLa); type: cell-based; details: 100% = TTNPB 10^-8 M
[4] = test system: RARβ-ERcassette; assay: Transactivation, chimerical receptor RARβ-ERcassette (HeLa); type: cell-based; details: TTNPB 10^-8 M = 100
How it was run: (§1)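 HeLa cells were transiently co-transfected by calcium phosphate co-precipitation with […] chimeric receptor plasmid (RAR DNA-binding C domain replaced by the oestrogen receptor's; A, B, D, E, F regions kept), […] ERE-luciferase reporter and […] CMV-β-galactosidase control. Compounds were applied 24 h later for 16 h.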

[5] = test system: RAR-ERcassettes (RARα, RARβ, RARγ); assay: Chimerical receptors RAR-ERcassettes, overall profile; type: cell-based
How it was run: as §1

[6] = test system: RARα-ERcassette; assay: Transactivation, chimerical receptor RARα-ERcassette (HeLa); type: cell-based; details: TTNPB 10^-8 M = 100
How it was run: as §1

[7] = test system: T-47D human mammary cancer cells; assay: MTT test, proliferation of T-47D; type: cell-based; details: for activity at 100 µM / activity at 1 µM / activity at 0.01 µM: Homo sapiens, T47D, T-47D, 72 h, control = 100%, read-out: level of proliferation; for activity at 100 µM: 10^-4 M; for activity at 1 µM: 10^-6 M; for activity at 0.01 µM: 10^-8 M
How it was run: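 Cells grown at 37° C in MEM/5% FCS were plated for 24 h, then treated at 10^-8, 10^-6 or 10^-4 M. Each condition was run in 6 duplicates.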

[8] = test system: T-47D cells; assay: Effect on oestrogen-induced proliferation of T-47D cells; type: cell-based, human; details: for activity at 1 µM: Homo sapiens, T47D, 168 h, 10^-6 M, 100% = E2 10^-9 M, read-out: growth of T-47D cells

Row | Compound | Gal-RAR agonist profile (in words) [1] | inhibition [2] | anti-oestrogenic effect (in words) [2] | GAL4-RAR RARα transactivation ([3]; 10^-6 M) | RAR-ERcassette RARβ transactivation ([4]; 10^-6 M) | RAR-ERcassette RARβ transactivation ([4]; 10^-7 M) | RAR-ERcassette RARβ transactivation ([4]; 10^-8 M) | RAR-ERcassette profile (in words) [5] | RAR-ERcassette RARα transactivation ([6]; 10^-6 M) | RAR-ERcassette RARα transactivation ([6]; 10^-7 M) | RAR-ERcassette RARα transactivation ([6]; 10^-8 M) | activity at 100 µM [7] | activity at 1 µM [7] | activity at 0.01 µM [7] | effect on cellular increase, T-47D (in words) ([7]; MTT test) | activity at 1 µM ([8]; 7 days) | effect on oestrogen-induced growth, T-47D (in words) ([8]; estradiol 10^-9 M) | inhibition at 0.1 µM [2] | GAL4-RAR RARα transactivation ([3]; 10^-7 M) | inhibition of growth (of the order of) ([8]; estradiol 10^-9 M, 7 days)
1 | C/C(=C/c1ccc2c(c1)C(C)(C)CCC2(C)C)c1ccc(-c2nnn[nH]2)cc1 [CB92834] | not RAR agonists | 0% | inactive | 8% | 43% | 36% | 0% | do not permit transactivation mediated by RARα-ERcassette and RARγ-cassette. However, a partial transactivation of RARβ-ERcassette is observed; also recorded: with a specific RAR agonist permits an over-activation of the effect of the RAR molecule alone for the three RAR-ERcassette receptors | 11% | 9% | 0% | 3.5% | 83.2% | 86.5% | strongly inhibitive activity on the cellular increase of the two lineages | 94% | inactive on the oestrogen-induced growth |  |  | 
2 | CC1(C)CCC(C)(C)c2cc(/C=C(\c3ccc(C(=O)O)cc3)C(F)(F)F)ccc21 [CB36493, (E) 4-[1-trifluoromethyl-2-(5,6,7,8-tetrahydro-5,5,8,8-tetramethyl-2-naphthalenyl)-1-ethenyl]benzoic acid] | partial agonists at 1 μM for the three RAR receptors | 17 to 32% | permit a transrepression of a controlled gene by an ERE | 38% | 205% | 34% | 0% | induce a transactivation mediated by the three receptors | 91% | 15% | 1% | 21.4% | 116% | 134% |  | 68 to 78% |  | 0% |  | 
3 | C/C(=C/c1ccc2c(c1)C(C)(C)CCC2(C)C)c1ccc(C(=O)O)cn1 [CB38416, (Z) 2-[1-(5,6,7,8-tetrahydro-5,5,8,8-tetramethyl-2-naphthalenyl)-2-propenyl]pyridinyl-5-carboxylic acid] | partial agonist for RARα and RARβ but complete for RARγ | 19% | permit a transrepression of a controlled gene by an ERE | 58% | 198% | 57% | 10% | induce a transactivation mediated by the three receptors | 65% | 7% | 0% | 42.5% | 82.6% | 119% |  | 50 to 60% |  | 0% |  | 
4 | C/C(=C/c1ccc2c(c1)C(C)(C)CCC2(C)C)c1ccc(C(=O)O)nc1 [CB16279, (Z) 5-[1-(5,6,7,8-tetrahydro-5,5,8,8-tetramethyl-2-naphthalenyl)-2-propenyl]pyridinyl-2-carboxylic acid] | partial agonists at 1 μM for the three RAR receptors | 32% | permit a transrepression of a controlled gene by an ERE | 33% | 118% | 60% |  | induce a transactivation mediated by the three receptors | 60% | 6% |  |  |  |  |  | 84% |  |  |  | 
5 | CC1(C)CCC(C)(C)c2cc(/C=C(\c3ccc(-c4nnn[nH]4)cc3)C(F)(F)F)ccc21 [CB77402, (E) 5-[4-[1-trifluoromethyl-2-(5,6,7,8-tetrahydro-5,5,8,8-tetramethyl-2-naphthalenyl)-1-ethenyl]phenyl]-1H-tetrazole] | not RAR agonists | 0% | inactive | 6% | 37% | 31% | 0% | do not permit transactivation mediated by RARα-ERcassette and RARγ-cassette. However, a partial transactivation of RARβ-ERcassette is observed; also recorded: with a specific RAR agonist permits an over-activation of the effect of the RAR molecule alone for the three RAR-ERcassette receptors | 8% | 1% | 0% | 15.4% | 118% | 128% |  |  |  |  |  | 
6 | C/C(=C/c1ccc2c(c1)C(C)(C)CCC2(C)C)c1ccc(C(=O)O)cc1 [CB28628, reference compound] | completely agonistic for the three types of RAR receptors | 29 to 41% |  |  | 183% | 115% | 88% | complete agonist for RARγ-ERcassetteand induce an over-activation of RARα-ERcassette and RARβ-ERcassette at 1 μM | 179% | 95% | 35% | 4% | 59.3% | 93.2% |  | 33% |  | 31% | 103% | ~70%
